Assay results taken from US8383637B2, “2-amino-quinazoline derivatives useful as inhibitors of β-secretase (BACE)” (Jansssen Pharmaceutica N.V., priority 2004, dated 2013).
Where “and” joins values, the source holds several entries; their conditions need not be identical. Identical values can stand only once.

Tests used:
β-secretase(BACE) [1] = target: T1, β-secretase(BACE) (Homo sapiens, UniProt P56817); assay: BACE FS1% Inhibition Assay; assay type: biochemical; conditions: FS1 substrate; for inhibition at 3 µM: read-out: % Inhibition (FS) 3 μM; for inhibition at 10 µM: 10 μM test compound, read-out: % Inhibition (FS) 10 μM; for inhibition at 0.3 µM: read-out: % Inhibition (FS) 0.3 μM; for inhibition at 1 µM: read-out: % Inhibition (FS) 1 μM
T1 construct: purchased Panvera
Procedure, shortened: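 Percent inhibition at each tested concentration, referenced to enzyme-free blank and vehicle-only positive control. Reaction: compound and BACE (4 μg/mL working stock) mixed 20 min at room temperature before FS1 substrate (300 μg/mL working stock), then 1 h at room temperature.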

β-secretase(BACE) [2] = target: T1, β-secretase(BACE); assay: BACE Assay-2 (FS1 substrate, IC50 and Ki); assay type: biochemical; conditions: procedure of Example 159, FS1 substrate; read-out: Ki μM (159)
Procedure: The FS1-substrate stock solution was prepared in DMSO as a 10 mg/mL solution. The FS1-substrate working solution was prepared by diluting the 10 mg/mL stock solution with substrate assay buffer to a final concentration of 300 μg/mL. The β-secretase (BACE) working solution was prepared by diluting a 0.83 mg/mL BACE stock solution with enzyme assay buffer to a final concentration of 4 μg/mL.
Test compounds were dissolved in DMSO at 10 mM.
The procedure for this assay was as follows: 15 μL of BACE working solution was pipetted into each well of a 96-well plate. To each well was then pipetted 2 μL of test compound at the selected concentration. Test compound and BACE were then mixed with a pipettor and incubated for 20 min at room temperature. To each well was then added 10 μL of the FS1 substrate working solution.
The procedure for the positive control was as follows: 15 μL of BACE working solution was pipetted into each well to be used as a positive control. To each well was then pipetted 2 μL of vehicle. Vehicle and BACE were then mixed with a pipettor and incubated for 20 min at room temperature. To each well was then added 10 μL of the FS1 substrate working solution.
For test compounds, measured at multiple concentrations, the measured T0 and T60 values were used to calculate an IC50 value using Graphpad Software (or PIR). For test compounds, Ki inhibition was determined as follows: For each compound concentration and positive control, rate of cleavage of substrate (Vi, where i=compound concentration in μM) was determined as Δ Fluorescence/Δ time (min). Cleavage rates (Vi) were plotted as a function of inhibitor concentration in μM [I]. The Ki was then determined by fitting the following equation to the graph of [I] vs Vi Y=aVmax/(50+24*(1+X/Ki)),

T1 sequence (P56817 46-501): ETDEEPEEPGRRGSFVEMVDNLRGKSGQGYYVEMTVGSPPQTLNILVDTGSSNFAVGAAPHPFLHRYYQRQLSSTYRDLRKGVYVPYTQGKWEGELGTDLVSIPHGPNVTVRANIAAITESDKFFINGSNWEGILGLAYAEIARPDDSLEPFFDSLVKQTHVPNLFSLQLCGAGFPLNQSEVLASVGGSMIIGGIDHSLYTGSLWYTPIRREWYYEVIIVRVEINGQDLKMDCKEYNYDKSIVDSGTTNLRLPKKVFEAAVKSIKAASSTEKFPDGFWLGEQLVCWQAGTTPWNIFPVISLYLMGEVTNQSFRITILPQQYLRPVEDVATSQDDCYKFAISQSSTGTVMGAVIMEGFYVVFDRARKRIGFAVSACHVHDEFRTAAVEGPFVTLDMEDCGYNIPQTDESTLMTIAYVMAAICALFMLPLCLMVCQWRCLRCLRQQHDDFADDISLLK

SMILES | inhibition at 3 µM (β-secretase(BACE) [1]; 3 μM test compound) [%] | inhibition at 10 µM (β-secretase(BACE) [1]) [%] | Ki (β-secretase(BACE) [2]) [µM] | % Inhibition (FS) 0.3 μM (β-secretase(BACE) [1]; 0.3 μM test compound) [%] | inhibition at 0.3 µM (β-secretase(BACE) [1]; 0.3 μM test compound) [%] | % Inhibition (FS) 1 μM (β-secretase(BACE) [1]; 1 μM test compound, 1 µM) | % Inhibition (FS) 3 μM (β-secretase(BACE) [1]; 3 μM test compound, 3 µM) [%] | inhibition at 1 µM (β-secretase(BACE) [1]; 1 μM test compound) [%]
CN(C(=O)CCC(c1ccccc1)N1Cc2cc(Oc3ccccc3)ccc2N=C1N)C1CCCCC1 (stereo not drawn) [Compound 151] | 79 | 104 | 0.23 |  |  |  |  | 
CN(C(=O)CCCC(c1ccccc1)N1Cc2cc(Oc3ccccc3)ccc2N=C1N)C1CCCCC1 (stereo not drawn) [Compound 152] | 85 | 107 | 0.3 |  |  |  |  | 
CN(C(=O)c1cccc(CN2Cc3cc(-c4ccccc4S(=O)(=O)NC(C)(C)C)ccc3N=C2N)c1)C1CCCCC1 [Compound 158] | 60 |  | 0.81 | <30 | < 30 | <30% and 53% | 79 | 
CN(C(=O)c1cccc(CN2Cc3cc(-c4cccnc4)ccc3N=C2N)c1)C1CCCCC1 [Compound 170] | 67 |  | 0.77 |  | < 30 |  |  | 49
CN(C(=O)c1cccc(CN2Cc3cc(-c4ccccc4C(N)=O)ccc3N=C2N)c1)C1CCCCC1 [Compound 173] | 76 |  | 0.47 |  | < 30 |  |  | 53
CN(C(=O)CCCN1Cc2cc(Oc3ccccc3)ccc2N=C1N)C1CCCCC1 [Compound 177] | 102 |  | 0.56 |  | < 30 |  |  | 80
CC(C)N(C(=O)CCN1Cc2cc(Oc3ccccc3)ccc2N=C1N)C1CCCCC1 [Compound 179] | 85 |  | 1.04 |  | < 30 |  |  | 54
CC(C)C(CC(=O)N(C)C1CCCCC1)N1Cc2cc(Oc3ccccc3)ccc2N=C1N (stereo not drawn) [Compound 201] | 66 |  | 0.4 |  | < 30 |  |  | < 30
NC1=Nc2ccc(Oc3ccccc3)cc2CN1CCNC(=O)Nc1ccccc1 [Compound 205] | 90 |  | 0.32 |  | < 30 |  |  | 47
CC(C)CN(CC(C)C)C(=O)c1cccc(CN2Cc3cc(Oc4ccccc4)ccc3N=C2N)c1 [Compound 211] | 68 |  | 0.69 |  | < 30 |  |  | < 30
COc1ccccc1C(=O)NCCN1Cc2cc(Oc3ccccc3)ccc2N=C1N [Compound 216] | 91 |  | 0.52 |  | < 30 |  |  | 45
CN(C(=O)c1cccc(CN2Cc3cc(-c4ccccc4C#N)ccc3N=C2N)c1)C1CCCCC1 [Compound 263] | 92 |  | 0.77 |  | 20 |  |  | 60
CN(C(=O)c1cccc(CN2Cc3cc(-c4csc5ccccc45)ccc3N=C2N)c1)C1CCCCC1 [Compound 265] | 92 |  | 1.1 |  | < 30 |  |  | 55
CN(C(=O)c1cccc(CN2Cc3cc(-c4ccccc4C(F)(F)F)ccc3N=C2N)c1)C1CCCCC1 [Compound 268] | 71 |  | 0.65 |  | < 30 |  |  | < 30
NC1=Nc2ccc(Oc3ccccc3)cc2CN1C(CNC(=O)C(c1ccccc1)c1ccccc1)C1CCCCC1 (stereo not drawn) [Compound 304] | 100 |  | 0.56 |  | < 30 |  |  | 46
CN(C(=O)c1cccc(CN2Cc3cc(-c4ccccc4OC(F)(F)F)ccc3N=C2N)c1)C1CCCCC1 [Compound 324] | 87 |  | 0.52 |  | < 30 |  |  | 55
CC(=O)Nc1ccccc1-c1ccc2c(c1)CN(Cc1cccc(C(=O)N(C)C3CCCCC3)c1)C(N)=N2 [Compound 328] | 92 |  | 0.33 |  | < 30 |  |  | 61
CN(C(=O)c1cccc(CN2Cc3cc(-c4ccccc4[N+](=O)[O-])ccc3N=C2N)c1)C1CCCCC1 [Compound 333] | 78 |  | 0.49 |  | < 30 |  |  | < 30
Cc1ccccc1Sc1ccc2c(c1)CN(Cc1cccc(C(=O)N(C)C3CCCCC3)c1)C(N)=N2 [Compound 404] | 67 |  | 0.78 |  | < 30 |  |  | 32
CCC(c1cccc(C(=O)N(C2CCCCC2)C2CCCCC2)c1)N1Cc2cc(-c3ccccc3OC)ccc2N=C1N (stereo not drawn) [Compound 418] | 119 |  | 0.035 |  | 54 |  |  | 89

Other lines, results leading:

inhibition at 3 µM (β-secretase(BACE) [1]; 3 μM test compound) [%] | inhibition at 10 µM (β-secretase(BACE) [1]) [%] | Ki (β-secretase(BACE) [2]) [µM] | % Inhibition (FS) 0.3 μM (β-secretase(BACE) [1]; 0.3 μM test compound) [%] | inhibition at 0.3 µM (β-secretase(BACE) [1]; 0.3 μM test compound) [%] | % Inhibition (FS) 1 μM (β-secretase(BACE) [1]; 1 μM test compound, 1 µM) | % Inhibition (FS) 3 μM (β-secretase(BACE) [1]; 3 μM test compound, 3 µM) [%] | inhibition at 1 µM (β-secretase(BACE) [1]; 1 μM test compound) [%] | SMILES
111 |  | 0.2 |  | 66 |  |  | 97 | Cc1cccc(-c2ccc3c(c2)CN(Cc2cccc(C(=O)N(C)C4CCCCC4)c2)C(N)=N3)c1 [Compound 176]
110 |  | 0.22 |  | 38 |  |  | 92 | CC(C)N(C(=O)c1cccc(CN2Cc3cc(Oc4ccccc4)ccc3N=C2N)c1)C1CCCCC1 [Compound 192]
103 |  | 0.29 |  | < 30 |  |  | 58 | Cc1cccc(Oc2ccc3c(c2)CN(Cc2cccc(C(=O)N(C)C4CCCCC4)c2)C(N)=N3)c1 [Compound 209]
75 |  | 3.8 |  | < 30 |  |  | 71 | CN(C(=O)c1cccc(CN2Cc3cc(Oc4cccc(-c5ccccc5)c4)ccc3N=C2N)c1)C1CCCCC1 [Compound 231]
110 |  | 0.42 |  | 51 |  |  | 87 | Cc1ccccc1-c1ccc2c(c1)CN(Cc1cccc(C(=O)N(C)C3CCCCC3)c1)C(N)=N2 [Compound 261]
95 |  | 0.66 |  | 39 |  |  | 63 | Cc1cccc(C)c1-c1ccc2c(c1)CN(Cc1cccc(C(=O)N(C)C3CCCCC3)c1)C(N)=N2 [Compound 262]
92 |  | 0.78 |  | 26 |  |  | 63 | COc1cccc(OC)c1-c1ccc2c(c1)CN(Cc1cccc(C(=O)N(C)C3CCCCC3)c1)C(N)=N2 [Compound 264]
83 |  | 1 |  | < 30 |  |  | 49 | COc1cccc(Oc2ccc3c(c2)CN(Cc2cccc(C(=O)N(C)C4CCCCC4)c2)C(N)=N3)c1 [Compound 292]
81 |  | 1.1 |  | < 30 |  |  | 44 | Cc1ccccc1Oc1ccc2c(c1)CN(Cc1cccc(C(=O)N(C)C3CCCCC3)c1)C(N)=N2 [Compound 293]
118 |  | 0.068 |  | 74 |  |  | 103 | CN(C(=O)c1cccc(CN2Cc3cc(-c4ccccc4F)ccc3N=C2N)c1)C1CCCCC1 [Compound 334]
